In US20180353462A1, “[…] AGENTS […] FLAVONOID DERIVATIVES TARGETING KINASES, SIRTUINS AND ONCOGENIC AGENTS FOR THE TREATMENT OF CANCERS” (priority 2015, published 2018):

Columns and labels:
RIOK1 = target: T1, RIOK1 (Homo sapiens, UniProt Q9BRS2); experiment: Kinase competition binding assay, RIOK1; conditions: Table 1 kinase panel
T1 construct: T7 phage fusion (most assays) or DNA tag for qPCR (HEK-293-made kinases); made in house
T1 sequence (Q9BRS2 1-568): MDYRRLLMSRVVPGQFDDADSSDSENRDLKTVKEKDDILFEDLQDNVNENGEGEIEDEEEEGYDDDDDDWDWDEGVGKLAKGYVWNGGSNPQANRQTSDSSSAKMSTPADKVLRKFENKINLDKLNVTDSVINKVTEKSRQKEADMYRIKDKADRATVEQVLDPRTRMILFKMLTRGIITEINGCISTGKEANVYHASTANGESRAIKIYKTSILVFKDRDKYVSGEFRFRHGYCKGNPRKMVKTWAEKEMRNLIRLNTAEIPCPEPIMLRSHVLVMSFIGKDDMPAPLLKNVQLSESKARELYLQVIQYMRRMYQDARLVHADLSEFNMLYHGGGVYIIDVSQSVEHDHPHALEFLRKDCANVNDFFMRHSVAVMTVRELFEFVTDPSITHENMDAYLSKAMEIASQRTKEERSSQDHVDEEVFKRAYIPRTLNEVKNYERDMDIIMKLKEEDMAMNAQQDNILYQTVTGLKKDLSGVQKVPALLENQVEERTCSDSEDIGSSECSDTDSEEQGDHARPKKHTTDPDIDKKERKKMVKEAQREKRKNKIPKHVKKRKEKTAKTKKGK
Protocol: (§1) Cannabis flavonoids and their analogs were subjected to kinase inhibition assay. The compounds were first screened at a single concentration of 10 μM in the primary assay. […]. To determine the kd or IC50 values, competition binding assays were established, authenticated and executed as described previously. Fabian et al., “A Small Molecule-Kinase Interaction Map For Clinical Kinase Inhibitors.”, Nat Biotechnol, 23(3):329-36, Epub (2005). See also, Karaman et al., “A Quantitative Analysis Of Kinase Inhibitor Selectivity”, Nat. Biotechnol. […] For most assays, kinases were fused to T7 phage strains (Fabian, supra) and for the other assays, kinases were produced in HEK-293 cells after which they were tagged with DNA for quantitative PCR detection. In general, full-length constructs were used for small, single domain kinases, and catalytic domain constructs for large multi-domain kinases. The binding assays utilized streptavidin-coated magnetic beads treated with biotinylated small molecule ligands for 30 minutes at room temperature which generated affinity resins for the kinase assays. The liganded beads were blocked with excess biotin and washed with blocking buffer (SeaBlock (Pierce), 1% BSA, 0.05% Tween 20, 1 mM DTT) to remove unbound ligand and to reduce non-specific phage binding. […] Test compounds were prepared as 40× stocks in 100% DMSO and diluted directly into the assay (Final DMSO concentration=2.5%). All reactions were performed in polypropylene 384-well plates in a final volume of 0.04 ml. […] The beads were then re-suspended in elution buffer (1×PBS, 0.05% Tween 20, 0.5 μM non-biotinylated affinity ligand) and incubated at room temperature with shaking for 30 minutes. The kinase concentration in the eluates was measured by quantitative PCR. An illustration of the kinase interaction process is presented below. Kd/IC50 values were determined using a standard dose response curve using the hill equation. Curves were fitted using a non-linear least square fit with the Levenberg-Marquardt algorithm.
(§2) The compound(s) were screened at 10 μM and results for primary screen binding interactions are reported as ‘% Ctrl’, where lower numbers indicate stronger hits in the matrix.

SIRT-2 = target: T2, SIRT-2 (Homo sapiens, UniProt Q8IXJ6); experiment: Inhibition of sirtuins, SIRT-2; assay type: biochemical; conditions: Table 3 SIRT
T2 sequence (Q8IXJ6 1-389): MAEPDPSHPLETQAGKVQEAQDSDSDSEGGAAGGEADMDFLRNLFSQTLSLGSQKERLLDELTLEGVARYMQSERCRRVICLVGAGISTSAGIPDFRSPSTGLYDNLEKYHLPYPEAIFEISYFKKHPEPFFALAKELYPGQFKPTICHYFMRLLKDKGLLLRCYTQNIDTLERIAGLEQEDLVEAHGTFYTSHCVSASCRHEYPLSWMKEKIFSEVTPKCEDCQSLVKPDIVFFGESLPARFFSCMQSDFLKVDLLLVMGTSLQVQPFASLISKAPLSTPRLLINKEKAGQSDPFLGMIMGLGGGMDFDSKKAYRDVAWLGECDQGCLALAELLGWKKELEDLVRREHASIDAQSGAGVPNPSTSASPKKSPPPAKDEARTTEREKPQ
Text: Inhibition of Sirtuins, Matrix Metalloproteinase, Bromodomains was Also Confirmed Using Standard Protocols and the Results are Present in Table 2.

FMS/CSF1R = target: T3, FMS/CSF1R (Homo sapiens, UniProt P07333); experiment: Kinase competition binding assay, FMS/CSF1R; conditions: Table 1 kinase panel
T3 construct: made in house
T3 sequence (P07333 20-972): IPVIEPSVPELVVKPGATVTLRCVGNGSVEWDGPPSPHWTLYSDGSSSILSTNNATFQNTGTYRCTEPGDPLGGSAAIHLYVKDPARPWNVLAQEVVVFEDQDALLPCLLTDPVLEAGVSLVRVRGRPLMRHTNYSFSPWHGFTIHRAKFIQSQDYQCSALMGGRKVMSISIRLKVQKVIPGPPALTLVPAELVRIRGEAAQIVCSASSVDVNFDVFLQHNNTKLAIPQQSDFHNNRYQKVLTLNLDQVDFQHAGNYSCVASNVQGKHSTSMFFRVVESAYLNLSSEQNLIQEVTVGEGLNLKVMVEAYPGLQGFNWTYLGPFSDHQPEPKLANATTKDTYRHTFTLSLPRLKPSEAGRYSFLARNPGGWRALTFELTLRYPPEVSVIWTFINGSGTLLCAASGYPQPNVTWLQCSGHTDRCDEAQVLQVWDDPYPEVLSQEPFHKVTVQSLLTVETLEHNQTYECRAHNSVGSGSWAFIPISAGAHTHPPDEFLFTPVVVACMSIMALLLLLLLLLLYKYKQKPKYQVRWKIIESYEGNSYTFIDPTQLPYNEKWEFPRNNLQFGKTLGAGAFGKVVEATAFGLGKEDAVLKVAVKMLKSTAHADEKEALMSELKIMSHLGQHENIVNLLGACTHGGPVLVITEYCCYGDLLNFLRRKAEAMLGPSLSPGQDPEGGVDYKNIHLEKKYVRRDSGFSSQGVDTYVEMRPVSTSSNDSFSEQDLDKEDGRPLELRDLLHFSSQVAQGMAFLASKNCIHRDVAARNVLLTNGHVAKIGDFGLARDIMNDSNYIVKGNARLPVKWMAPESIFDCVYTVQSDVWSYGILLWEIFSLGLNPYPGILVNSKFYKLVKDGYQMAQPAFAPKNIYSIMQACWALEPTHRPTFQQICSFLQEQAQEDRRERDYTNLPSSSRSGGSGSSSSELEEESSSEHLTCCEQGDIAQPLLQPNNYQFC
Protocol: as §1, §2

DRAK2 = target: T4, DRAK2 (Homo sapiens, UniProt O94768); experiment: Kinase competition binding assay, DRAK2; conditions: Table 1 kinase panel
T4 construct: made in house
T4 sequence (O94768 1-372): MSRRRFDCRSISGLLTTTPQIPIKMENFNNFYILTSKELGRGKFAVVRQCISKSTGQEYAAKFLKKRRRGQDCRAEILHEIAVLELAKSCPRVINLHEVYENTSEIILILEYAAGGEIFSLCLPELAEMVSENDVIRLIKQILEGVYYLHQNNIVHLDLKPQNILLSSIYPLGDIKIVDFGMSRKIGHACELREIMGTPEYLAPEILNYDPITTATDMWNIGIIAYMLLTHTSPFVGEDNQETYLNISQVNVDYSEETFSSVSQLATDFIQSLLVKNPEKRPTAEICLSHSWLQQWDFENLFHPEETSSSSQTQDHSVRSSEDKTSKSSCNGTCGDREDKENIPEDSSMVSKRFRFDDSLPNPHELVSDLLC
Protocol: as §1, §2

PIK4CB = target: T5, PIK4CB (Homo sapiens, UniProt Q9UBF8); experiment: Kinase competition binding assay, PIK4CB; conditions: Table 1 kinase panel
T5 construct: T7 phage fusion (most assays) or DNA tag for qPCR (HEK-293-made kinases); made in house
T5 sequence (Q9UBF8 whole entry, the tested form may be a part): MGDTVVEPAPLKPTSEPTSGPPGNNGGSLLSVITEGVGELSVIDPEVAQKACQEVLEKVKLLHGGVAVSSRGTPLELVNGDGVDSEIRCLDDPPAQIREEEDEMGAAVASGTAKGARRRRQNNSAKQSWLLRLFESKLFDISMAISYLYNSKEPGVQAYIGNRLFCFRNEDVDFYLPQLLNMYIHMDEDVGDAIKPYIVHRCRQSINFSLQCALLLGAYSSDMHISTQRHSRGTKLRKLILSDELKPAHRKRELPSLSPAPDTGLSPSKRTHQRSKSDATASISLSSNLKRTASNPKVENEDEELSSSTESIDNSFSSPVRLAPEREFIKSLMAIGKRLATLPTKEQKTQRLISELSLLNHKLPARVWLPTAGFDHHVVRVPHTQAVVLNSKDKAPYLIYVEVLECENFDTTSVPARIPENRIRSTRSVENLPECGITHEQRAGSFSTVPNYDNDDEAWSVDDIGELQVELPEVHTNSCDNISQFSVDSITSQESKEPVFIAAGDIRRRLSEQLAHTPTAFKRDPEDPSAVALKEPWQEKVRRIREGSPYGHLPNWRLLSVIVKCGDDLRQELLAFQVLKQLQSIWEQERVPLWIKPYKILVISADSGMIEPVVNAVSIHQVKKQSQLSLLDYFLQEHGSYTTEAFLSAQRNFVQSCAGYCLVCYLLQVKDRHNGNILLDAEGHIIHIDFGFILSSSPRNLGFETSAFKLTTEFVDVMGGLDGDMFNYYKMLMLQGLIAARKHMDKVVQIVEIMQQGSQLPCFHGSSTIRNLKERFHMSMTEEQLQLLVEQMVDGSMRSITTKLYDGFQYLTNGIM
Protocol: as §1, §2

Row | SMILES | IC50 (RIOK1) [nM] | IC50 (SIRT-2) [µM] | IC50 (FMS/CSF1R) [nM] | IC50 (DRAK2) [nM] | IC50 (PIK4CB) [nM]
1 | COc1cc(-c2cc(=O)c3c(O)c(C/C=C(\C)CCC=C(C)C)c(O)cc3o2)ccc1O [FBL-03A] | > 20000 | 2.57 | 1500 | > 20000 | 670
2 | COc1cc(-c2cc(=O)c3c(O)cc(O)c(C/C=C(\C)CCC=C(C)C)c3o2)ccc1O [FBL-03C] | 340 | 14 | 1200 | 980 | > 1000
3 | COc1ccc(-c2cc(=O)c3c(O)c(C/C=C(\C)CCC=C(C)C)c(O)cc3o2)cc1OC [FBL-03D] | > 30000 | 2.38 | > 30000 | > 30000 | > 30000
4 | COc1cc(-c2cc(=O)c3c(O)c(CC=C(C)C)c(O)cc3o2)ccc1O [FBL-03B] | > 10000 | 10.8 | 199 | < 1000 | –
5 | COc1cc(-c2cc(=O)c3c(O)cc(O)c(CC=C(C)C)c3o2)ccc1O [FBL-03G] | > 20000 | 24.1 | 4 | > 10000 | > 20000
